# Patent publication EP1657232A1, “Use of S-enantiomers of alpha-sustituted aryl acetic acids for the prevention of Alzheimer's disease” (CELLZOME AG, priority 2004, dated 2006)
# Molecular target: T1, cyclooxygenase-1 (Cox-1) (Ovis aries, UniProt P05979)
# T1 construct: purchased Cayman Chemical Company 760111
# T1 sequence (P05979 25-600): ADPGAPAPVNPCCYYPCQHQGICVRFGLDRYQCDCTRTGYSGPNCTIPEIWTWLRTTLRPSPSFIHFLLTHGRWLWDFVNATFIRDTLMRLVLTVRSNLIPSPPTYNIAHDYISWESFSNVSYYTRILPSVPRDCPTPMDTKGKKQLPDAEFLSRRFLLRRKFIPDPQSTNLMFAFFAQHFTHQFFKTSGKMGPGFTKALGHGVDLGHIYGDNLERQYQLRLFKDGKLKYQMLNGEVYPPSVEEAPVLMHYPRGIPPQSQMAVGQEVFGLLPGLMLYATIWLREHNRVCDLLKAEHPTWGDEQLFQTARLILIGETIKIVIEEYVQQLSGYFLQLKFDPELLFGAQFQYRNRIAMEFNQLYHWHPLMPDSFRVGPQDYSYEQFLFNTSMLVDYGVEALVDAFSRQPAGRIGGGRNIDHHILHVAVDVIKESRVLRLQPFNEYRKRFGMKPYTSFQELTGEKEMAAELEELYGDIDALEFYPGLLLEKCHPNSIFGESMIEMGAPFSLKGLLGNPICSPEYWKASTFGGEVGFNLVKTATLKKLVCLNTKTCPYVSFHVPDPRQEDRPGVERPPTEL
# Experiment: Colorimetric Cox inhibitor screening assay (Cayman Chemical, Cat. No. 760111)
# Type: biochemical
# Method: Inhibition of Cox-1 is determined using the Colorimetric Cox inhibitor screening assay provided by Cayman Chemical Company, Ann Arbor, MI, USA. (Cat. No. 760111) according to manufacturer's instructions.
smiles,measurement,value
"CC(C)[C@H](C(=O)O)c1ccc(-c2cccc(C(F)(F)F)c2)cc1 [title compound of example 1, 2(S)-(3'-trifluoromethyl-biphenyl-4-yl)-3-methyl-butanoic acid]",inhibitory effect against Cox-1 activity,no inhibitory effect
